In patent US20240285670A1, “THERAPEUTIC TREATMENT OF TUMORS BY BLOCKING THE HEME SYNTHESIS-EXPORT AXIS” (Università degli Studi di Torino, priority 2021, published 2024):

How the values were obtained:
lung tumor LLC cells = assay: LLC cell viability (CellTiter-Fluor) as readout of proliferation; format: cell-based, murine; conditions: 0.5 mM SA at day 0, no medium refresh
[1] = tested on: FLVCR1a-overexpressing Caco2 cells; assay: TCA cycle flux in Caco2 cells overexpressing FLVCR1a; format: cell-based, human
Method: (A) TCA cycle flux in Caco2 cells expressing a scramble shRNA untreated or treated with 25 μM hemin for 2 hours. Moreover, the TCA cycle flux of untreated FLVCR1a-silenced Caco2 cells is reported for comparison. Results are expressed as pmol CO2/h/mg protein. Data represent mean±SEM, n=3. For statistical analyses, an unpaired Student's t-test was used to compare the two matched groups; *=p<0.05, ***=p<0.001. […] Results are expressed as pmol CO2/h/mg protein. Data represent mean±SEM, n=3. For statistical analyses, an unpaired Student's t-test was used; *=p<0.05, **=p<0.01. (C) TCA cycle flux in Caco2 cells overexpressing FLVCR1a (indicated as FLVCR1a+) are compared to cells stably transduced with an empty vector. Moreover, the TCA cycle flux of FLVCR1a-overexpressing Caco2 cells treated with 25 μM hemin or 0.5 mM SA for 2 hours is reported. Results are expressed as pmol CO2/h/mg protein. Data represent mean±SEM, n=3. For statistical analyses, an unpaired Student's t-test was used to compare the two matched groups; *=p<0.05, **=p<0.01. SA, succinylacetone. […]
(§1) The glucose flux through TCA cycle was measured by radiolabeling cells with 2 μCi/ml [6-^14C]-glucose (55 mCi/mmol; PerkinElmer, Waltham, MA, USA, catalog n° NEC045X). […] The amount of glucose transformed into CO2 through the TCA cycle was calculated as described (Riganti et al., 2004) and expressed as pmoles CO2/h/mg cell proteins.

Caco2 cells [2] = assay: Heme content (fluorescence assay) in Caco2 cells; format: cell-based, human; conditions: FLVCR1a-silenced Caco2 cells, 5 mM 5-ALA+0.5 mM SA
Method: (A) Heme content in Caco2 cells treated with 5 mM 5-ALA (black bars and white bars) or with 5 mM 5-ALA+0.5 mM SA (light grey outlined bars) for the indicated time points. […] Values are expressed as relative fluorescence intensity. Data represent mean±SEM, n=2. For statistical analyses, a two-way analysis of variance was used, followed by the Bonferroni correction for multiple group comparisons; **=p<0.01, ***=p<0.001. 5-ALA, 5-aminolevulinic acid; SA, succinylacetone. (B) Intracellular 5-ALA levels. […] Values are expressed as peak area/μg proteins. Data represent mean±SEM of n=4 wells pooled from two independent experiments. For statistical analyses, an unpaired Student's t-test was used; **=p<0.01. 5-ALA, 5-aminolevulinic acid. […] Values are expressed as peak area/μg proteins. […] Transcript abundance, normalized to beta-actin mRNA expression, is expressed as a fold increase over a calibrator sample. […] Band intensities were measured by densitometry and normalized to vinculin expression. […]
Intracellular heme concentration was measured using a fluorescence assay, as previously reported (Sinclair et al., 2001). […] Fluorescence (wavelength: excitation 405 nm-emission 660-720 nm) of the resultant protoporphyrin was assessed on a Glomax Multi Detection System (Promega Corporation, Madison WI, USA).
The endogenous protoporphyrin content (measured in parallel unheated samples in oxalic acid) was subtracted. […]

tumor cell = conditions: background art; cited from earlier work
Caco2 cells [3] = assay: TCA cycle flux in Caco2 cells; format: cell-based, human; conditions: control (scramble shRNA) Caco2 cells, 25 μM hemin for 2 hours
Text: TCA cycle flux is reported in the centre of the figure and expressed as pmol CO2/h/mg protein. Data represent mean±SEM, n=3. For statistical analyses, an unpaired Student's t-test was used. **=p<0.01. Moreover, TCA cycle enzymes activities are reported in boxes and expressed as mU/mg mitochondrial proteins. Data represent mean±SEM, n=3. For statistical analyses, an unpaired Student's t-test was used; *=p<0.05, ***=p<0.001. […] Results are expressed as pmol CO2/h/mg protein. Data represent mean±SEM, n=3. For statistical analyses, an unpaired Student's t-test was used; *=p<0.05, **=p<0.01.
(A) TCA cycle flux in Caco2 cells expressing a scramble shRNA untreated or treated with 25 μM hemin for 2 hours. Moreover, the TCA cycle flux of untreated FLVCR1a-silenced Caco2 cells is reported for comparison. Results are expressed as pmol CO2/h/mg protein. Data represent mean±SEM, n=3. […] Results are expressed as pmol CO2/h/mg protein. […] Results are expressed as pmol CO2/h/mg protein. […]
as §1

With `CC(=O)CC(=O)CCC(=O)O` [SA, 4-6 Dioxoheptanoic acid] the “cell proliferation (cell viability)” value (lung tumor LLC cells) was “effects on cell proliferation were similar”, the “reduction of the TCA cycle flux in FLVCR1a-overexpressing cells” value ([1]; 0.5 mM SA for 2 hours) was “reverted” and the “accumulation of de-novo synthesized heme” value (Caco2 cells [2]) was “blunted”. For the same molecule, the “tumor cell survival and proliferation” value (tumor cell) was “reduce tumor cell survival and proliferation”.

For “Hemin Ferriprotoporphyrin IX chloride [reference compound]”, the “reduction of the TCA cycle flux in FLVCR1a-overexpressing cells” value ([1]; 25 μM hemin for 2 hours) was “reverted” and the TCA cycle flux (Caco2 cells [3]) was “increased TCA cycle flux”.
